Where a name gives a salt, the structure may show the parent alone. Read-outs that look alike come from different tables or passages of the source.
Assays:
[1] = cited from earlier work
[2] = In vitro dissolution rate test in phosphate buffer (1000 ml, 50 turns per minute, HPLC); assay type: physicochemical; set-up: unit not given here
Method: PVP was used as the carrier material. The solid dispersion is prepared by solvent method (drug:carrier=1:10), and the method to evaluate solubility in vitro is given as follows:
Using this method, 5 ml of the solution was taken at 5 min, 10 min, 15 min, 20 min, 30 min, 45 min, and 60 min (5 ml dissolution medium was supplemented after the 5 ml solution was taken out) and filtered. The filtrate was taken as the test solution and checked for purity using HPLC.
(2) A solid dispersion which contains the drug substance 5 mg, according to the method of dissolution rate test and 1000 ml at pH 6.8 phosphate buffer was used as dissolution medium, with a rotating speed of 50 turns per minute. Using this method, 5 ml of the solution was taken at 5 min, 10 min, 15 min, 20 min, 30 min, 45 min, and 60 min (5 ml dissolution medium was supplemented after the 5 ml solution was taken out) and filtered. The filtrate was taken as the test solution and checked for purity using HPLC.
The dissolution rate of examples 1-11 were evaluated by the evaluation system mentioned above.
The dissolution rate was evaluated in pH 4.5 phosphate buffer:
The dissolution rate was evaluated in pH6.8 phosphate buffer: […]

[3] = drugs administrated alone; cited from earlier work
[4] = In vitro dissolution rate test in phosphate buffer (1000 ml, 50 turns per minute, HPLC); assay type: physicochemical

dissolution rate ([2]; pH 4.5 phosphate buffer, 0 min) | dissolution rate ([2]; pH 4.5 phosphate buffer, 5 min) | dissolution rate ([2]; pH 4.5 phosphate buffer, 10 min) | dissolution rate ([2]; pH 4.5 phosphate buffer, 15 min) | dissolution rate ([2]; pH 4.5 phosphate buffer, 20 min) | dissolution rate ([2]; pH 4.5 phosphate buffer, 30 min) | dissolution rate ([2]; pH 6.8 phosphate buffer, 0 min) | dissolution rate ([2]; pH 6.8 phosphate buffer, 5 min) | dissolution rate ([2]; pH 6.8 phosphate buffer, 15 min) | dissolution rate ([2]; pH 6.8 phosphate buffer, 30 min) | dissolution rate ([2]; pH 6.8 phosphate buffer, 45 min) | dissolution rate ([2]; pH 6.8 phosphate buffer, 60 min) | dissolution rate after micronization only ([4]; pH4.5 and pH6.8, compared to prasugrel hydrochloride prepared by only micronization) | Compound | solubility ([1]; pH 1-4) | solubility ([1]; pH 5) | solubility ([1]; pH 6-7) | bioavailability, hydrochloride vs free base form [3] | solubility after micronization only ([4]; pH 6.8, compared to prasugrel hydrochloride)
0 | 16.71 | 26.66 | 32.45 | 36.78 | 43.42 | 0 | 13.69 | 21.03 | 23.99 | 25.13 | 25.62 | – | CC(=O)Oc1cc2c(s1)CCN(C(C(=O)C1CC1)c1ccccc1F)C2 (stereo not drawn) [Prasugrel hydrochloride, prasugrel hydrochloride] | slightly soluble | very slightly soluble | insoluble | about equal | –
– | – | – | – | – | – | – | – | – | – | – | – | improved, but there is still a gap | CC(=O)Oc1cc2c(s1)CCN(C(C(=O)C1CC1)c1ccccc1F)C2 (stereo not drawn) [prasugrel, 5-(2-cyclopropyl-1-(2-fluorophenyl)-2-oxoethyl)-4,5,6,7-tetrahydrothieno[3,2-c]pyridin-2-yl acetate] | – | – | – | – | poorer than that of prasugrel hydrochloride

From patent US9050328B2 (Jiangsu Hansoh Pharmaceutical Group Co., Ltd., priority 2010, dated 2015)
